# Laboratory results: US20230149508A1, “COMPOSITIONS AND METHODS FOR TREATING COMPLICATIONS OF VIRAL INFECTIONS AND OTHER RESPIRATORY DISORDERS” (priority 2020, published 2023)
# Entries after “also recorded” stand apart in the source; their conditions may differ. Peptide text beside a SMILES is read from it. * marks the point of attachment. Biotin = O=C1N[C@H]2[C@H](CS[C@H]2CCCCC(=O)*)N1; Ahx = NCCCCCC(=O)O
# Legend:
# [1] = Excerpt: (§1) Clinical trials have been undertaken to assess safety of topical delivery of aCT1.
# human subjects [2] = conditions: in vivo
# Excerpt: as §1
# [3] = tested on: C57BL/6 mice intranasally challenged with a lethal dose of lipopolysaccharide (LPS); experiment: Lethal LPS-induced lung injury (ARDS) mouse model, survival; type: in vivo; conditions: p<0.01 vs LPS, n=10/group
# Description: C57BL/6 mice were pretreated with either 1000 uM aCT1, 1000 uM scrambled aCT1, or vehicle control prior to inoculation with a lethal dose (35 mg/kg/mouse) of LPS. A further group was treated with aCT1 6 hrs post inoculation of LPS. n=10/group (p<0.01 LPS vs LPS pre-aCT1, p<0.01 LPS vs LPS post aCT1).
# Studies were undertaken to assess whether delivery of aCT1 to the respiratory tract in animal models of ARDS would reduce epithelial and endothelial breakdown, thereby preserving the air-liquid barrier while preventing fluid accumulation and reducing immune cell infiltration, resulting in the amelioration of ARDS pathology and preserving lung function to improve survival. Using a well characterized mouse model of ARDS, we investigated whether aCT1 applied directly to the lungs could inhibit severe endotoxin induced lung injury. C57BL/6 mice were intranasally challenged with a lethal dose of lipopolysaccharide (LPS) and were treated with aCT1 immediately prior to LPS administration, or 6 h post LPS exposure (FIG. 2).
# [4] = Intravenous (bolus) toxicity of aCT1 in rats; type: in vivo, rat; conditions: rat, in vivo
# Description: (§2) Clinical signs were only observed at aCT1 administration levels that are well above the therapeutic range of efficacy, following intravenous administration of aCT1 at ≥10 mg/kg (Maximum Tolerated Dose). The results of these studies uniformly support aCT1 tolerability when delivered locally and systemically via various routes.
# rats = experiment: Intravenous (bolus) toxicity of aCT1 in rats; type: in vivo, rat; conditions: intravenous bolus
# Description: as §2
# human subjects [5] = conditions: local (topical) delivery, clinical trials; cited from earlier work
# [6] = tested on: normal human bronchial epithelial cells (NHBE); experiment: Trans-epithelial resistance (TER) of NHBE monolayers after H2O2 exposure; type: cell-based; conditions: aCT1 pre-treatment, exposure to 100 mM H2O2; n=3
# Description: (n=3, compared to H2O2 *:p<0.05, **:p<0.01, ***:p<0.0001)
# (§3) To determine if aCT1 treatment preserves junctional integrity in human lung cells, human bronchial epithelial cells (NHBEs) were grown as confluent monolayers on Transwell inserts and trans-epithelial resistance (TER) recorded. TER readings measure electrical resistance across a cell monolayer and provide a quantitative metric of intercellular junction integrity.
# [7] = tested on: Human lung microvascular endothelial cells (HLMEC); experiment: TER of HLMEC after LPS exposure; type: cell-based; conditions: n=3, p<0.0001 vs LPS
# Description: Human lung microvascular endothelial cells (HLMEC) were exposed to 10 μg LPS. Cells were treated with aCT1 prior to exposure or 24 hrs post LPS insult, scrambled control, or sham control. […] (n=3, compared to LPS ***:p<0.0001).
# as §3
smiles,measurement,setting,value
CC[C@H](C)[C@H](NC(=O)[C@H](CCC(=O)O)NC(=O)[C@H](CC(C)C)NC(=O)[C@H](CC(=O)O)NC(=O)[C@H](CC(=O)O)NC(=O)[C@@H]1CCCN1C(=O)[C@H](CCCNC(=N)N)NC(=O)[C@@H]1CCCN1C(=O)[C@H](CCCNC(=N)N)NC(=O)[C@H](CCCCN)NC(=O)[C@H](CCCCN)NC(=O)[C@H](Cc1c[nH]c2ccccc12)NC(=O)[C@@H]1CCCN1C(=O)[C@H](CCCCN)NC(=O)[C@H](CCCNC(=N)N)NC(=O)[C@H](CCCNC(=N)N)NC(=O)[C@H](CC(N)=O)NC(=O)[C@@H]1CCCN1C(=O)[C@H](Cc1ccccc1)NC(=O)[C@H](Cc1c[nH]c2ccccc12)NC(=O)[C@@H](NC(=O)[C@H](CCCCN)NC(=O)[C@@H]1CCCN1C(=O)[C@H](CCC(N)=O)NC(=O)[C@H](CCCNC(=N)N)NC(=O)CCCCCNC(=O)CCCC[C@@H]1SC[C@@H]2NC(=O)N[C@@H]21)[C@@H](C)CC)C(=O)O [aCT1] ({Biotin-Ahx}-RQPKIWFPNRRKPWKKRPRPDDLEI-OH; N-terminus and C-terminus assumed),Immunogenicity (anti-aCT1 antibodies),[1]; any preclinical study or clinical trial,not immunogenic
same,half-life,[1]; human,15 to 20 min
same,Drug related adverse events,human subjects [2],no drug related adverse events
same,Systemic exposure (pharmacokinetic studies in clinical trials),human subjects [2],no systemic exposure
same,Survival / LPS-induced mortality,[3]; aCT1 treatment 6 hrs post LPS inoculation (35 mg/kg/mouse),significant protection against LPS-induced mortality; also recorded: significantly improved survival
same,Survival / LPS-induced mortality,[3]; intranasal 1000 uM aCT1 pre-treatment prior to lethal LPS (35 mg/kg/mouse),significant protection against LPS-induced mortality; also recorded: significantly improved survival
same,MTD,"[4]; intravenous administration, read-out: Dose at which clinical signs were observed (Maximum Tolerated Dose)",≥ 10 mg/kg
same,NOAEL,"[4]; intravenous bolus, read-out: no-observable-adverse-effect level (NOAEL)",5 mg/kg
same,Tolerability,rats,well tolerated
same,Efficacy and safety in acute and chronic skin injuries,human subjects [5],demonstrated the efficacy and safety
same,TER (epithelial barrier integrity),[6],significantly increased TER readings; also recorded: stabilized intercellular junctions
same,TER (endothelial barrier integrity),[7]; aCT1 pre-treatment prior to 10 μg LPS,significantly improved endothelial TER readings; also recorded: preserved barrier integrity
same,TER (endothelial barrier integrity),[7]; aCT1 treatment 24 hrs post LPS insult (10 μg LPS),significantly improved endothelial TER readings; also recorded: preserved barrier integrity
